Laboratory results taken from patent US11376269B2, “Pharmaceutical compositions for the treatment of chemoresistant acute myeloid leukemia (AML)” (INSERM (INSTITUT NATIONAL DE LA SANTÉ ET DE LA RECHERCHE …, priority 2016, dated 2022).

What was measured:
U937 AML cell line = assay: Cell viability of U937 AML cell line, AnnexinV/7AAD-based flow cytometry assay; parameters: species or system human; settings: U937, 0.5 μM Ara-C, 100 μmol/L ARL
Protocol: (§1) FIG. 4. In vitro potentiatingeffect of ARL67156 (CD39 inhibitor) with cytarabine (AraC) in MOLM14 cell line. (A-B) MOLM14 cells were either treated or not with 2 μM Ara-C, 100 μmol/L ARL or 250 μmol/L of another CD39 inhibitor, POM-1, for 48 h. Cell viability was assessed using AnnexinV/7AAD-based flow cytometry assay. (C) U937 AML cell line was either treated or not with 0.5 μM Ara-C or 100 μmol/L ARL. The percent of viable cells was analyzed using AnnexinV/7AAD-based flow cytometry assay.
(§2) In vitro potentiating effect of CD39 inhibitor with cytarabine in MOLM14 cell line. In order to explore the effect of CD39 onto the chemoresistance to AraC in AML cell lines in vitro, we first tested the consequence of CD39 inhibition using an ecto-ATPase inhibitor ARL67156. […] High ADP and/or P2YR13 activation might be involved into this compensatory and protective mechanism.

MOLM14 cells = assay: Cell viability of MOLM14 cells, AnnexinV/7AAD-based flow cytometry assay; parameters: species or system human
Protocol: (§3) FIG. 3. In vitro study of the CD39 protein expression in MOLM14 AML cells after cytarabine (AraC) treatment in normoxia (21%) and hypoxia (1%). (A) Western analysis of the expression of HIF-1alpha, VDAC, CD39, P2Y13, pATF2 and HSP90 (as loading control) in MOLM14 cells after normoxia (21% O2) or hypoxia (1% O2) for 24 h, 48 h or 72 h. Each lane contained 30 μg of protein. (B-C-D) MOLM14 cells were treated with AraC (2 μM, IC50 in normoxia) for 48 h either in normoxia (21% O2) or hypoxia (1% O2). Flow cytometric analyses were perform to assess cell viability (B), CD39^+ expression (C-D). The results are representative of at least three independent experiments. The ATPase activity of CD39 in MOLM14 cells after Ara-C treatment was assessed and the concentration of non-hydrolyzed extracellular ATP was determined using the ATPlite assay (PerkinElmer) (E).
as §1, §2

[1] = tested on: primary AML cells from patients; assay: NSG mice xenografted with primary AML cells from patients (PDX), flow cytometry of residual cells; type: in vivo
Protocol: FIG. 2. Validation of the increase in CD39 after cytarabine (AraC) in 9 patient-derived xenografts, 45 AML patients and 2 cell line-derived xenografts. (A) The total number of human AML cells expressing CD45, CD33 and CD44 in 9 patient-derived xenograft (PDX) was analyzed and quantified using flow cytometry in AraC-treated xenografted mice compared to PBS-treated xenografted mice in bone marrow and spleen. (B) Flow cytometric analysis of the percent of CD34^+CD38^− immature cell population was performed in human viable residual CD45^+CD33^+ AML cells from AraC-treated xenografted mice compared to PBS-treated xenografted mice in bone marrow. (C) The percent of CD39^+ cells in the bulk population and CD34^+CD38^− immature cell population of human viable residual CD45^+CD33^+ AML cells was assessed in AraC-treated xenografted mice compared to PBS-treated xenografted mice in bone marrow by flow cytometry. (D-E-F) Similarly, flow cytometric analyses of 45 AML patients in peripheral blood at D35 (post-chemotherapy) and diagnosis to assess the percentage of blasts (D), of CD34^+CD38^− immature cells (E), and of CD39^+ residual cells in both total blasts (bulk) and CD34^+CD38^− population (F). (G-H) Flow cytometry analysis of 1 resistant cell line (MOLM14) and 1 sensitive cell line (U937)-derived xenograft (CLDX) to assess the total cell tumor burden of human viable AML cells in AraC- and PBS-treated CLDX (G), the percent of CD39^+ cells (H).
Until recently, mouse models of AML have been extensively used to characterize the nature and origin of LSCs (in part by our group: Sanchez et al. 2009. Sarry et al. 2011), but less frequently used to study their chemoresistance and miminum residual disease in vivo, an approach that is crucial to improve therapeutic outcome of AML patients. Thus, we tested and established an appropriate dose and regimen for use of AraC as baseline cytotoxic in our NSG mice xenografted with primary AML cells from patients seen at diagnosis or relapse of disease. We have access to a large resource of primary samples through our Biobank of the Hematology Clinical Department of the Oncopole Hospital in Toulouse (HIMIP, INSERM-U1037, ˜150 patients newly diagnosed/year) and in collaboration with Drs Gwen Danet-Desnoyers and Martin Carroll (University of Pennsylvania, Pa., USA). Then, we analyzed human AML cells surviving after AraC treatment over time. […] CANCER DISCOVERY. 2017).
Based on this model and the current hypothesis that AraC-resistant cells are rare, replicatively dormant and well adapted to hypoxic conditions (Ishikawa et al. 2007; Raaijmakers, 2011; Wilson and Hay, 2011), we have further analyzed all of these characteristics in AraC-treated patient-xenografted mice. We have first confirmed that CD34^+CD38^− cell population is increased post-AraC chemotherapy in residual AML cells. […] Finally, we have identified a signature of 15 genes (amongst of 350 genes, including CD39/ENTPD1 and P2Y13), that are the most differentially expressed in all of the three AML patient-derived xenografts after AraC treatment as compared to control samples using our in vivo PDX models coupled to a gene expression analysis (FIG. 1a).
Validation of the increase in CD39 expression in 9 patient-derived xenograft (PDX) models treated with cytarabine and in 45 AML patients at D35 compared to diagnosis. We first examined the effect of AraC on CD39 expression in residual viable AML cells from our NSG model xenografted with primary AML cells from 9 patients (FIG. 2a). […] Then, we analyzed CD39 expression in two AML cell line-derived xenografts, which confirmed our previous results in patients and PDXs.

AML blasts = assay: Flow cytometry of peripheral blood of 45 AML patients at D35 post-chemotherapy versus diagnosis; type: in vivo, human; settings: day 35 post-AraC versus diagnosis
Protocol: (§4) FIG. 2. Validation of the increase in CD39 after cytarabine (AraC) in 9 patient-derived xenografts, 45 AML patients and 2 cell line-derived xenografts. (A) The total number of human AML cells expressing CD45, CD33 and CD44 in 9 patient-derived xenograft (PDX) was analyzed and quantified using flow cytometry in AraC-treated xenografted mice compared to PBS-treated xenografted mice in bone marrow and spleen. (B) Flow cytometric analysis of the percent of CD34^+CD38^− immature cell population was performed in human viable residual CD45^+CD33^+ AML cells from AraC-treated xenografted mice compared to PBS-treated xenografted mice in bone marrow. (C) The percent of CD39^+ cells in the bulk population and CD34^+CD38^− immature cell population of human viable residual CD45^+CD33^+ AML cells was assessed in AraC-treated xenografted mice compared to PBS-treated xenografted mice in bone marrow by flow cytometry. […]
(§5) Validation of the increase in CD39 expression in 9 patient-derived xenograft (PDX) models treated with cytarabine and in 45 AML patients at D35 compared to diagnosis. […] Then, we analyzed CD39 expression in two AML cell line-derived xenografts, which confirmed our previous results in patients and PDXs.

CD39 [2] = assay: CD39 expression in MOLM14 cells after AraC in normoxia and hypoxia, flow cytometry; type: cell-based, human; settings: MOLM14, AraC 2 μM, 48 h, normoxic and hypoxic conditions
Protocol: as §3, with “(B-C-D) MOLM14 cells were treated with AraC (2 μM, IC50 in normoxia) for 48 h either in normoxia (21% O2) or hypoxia (1% O2).” left out, “The results are representative of at least three independent experiments.” left out
(§6) Then, we have established an AML cell line model to further study this mechanism. Using MOLM14 AML cell lines and hypoxic condition (1% versus 21% O2), we have analyzed the CD39 expression and ATP-hydrolyzing activity (FIG. 3).

CD39 [3] = assay: ATPase activity of CD39 in MOLM14 cells, non-hydrolyzed extracellular ATP by ATPlite assay; type: cell-based, human; settings: MOLM14 after AraC, normoxic and hypoxic conditions
Protocol: as §3, with “(B-C-D) MOLM14 cells were treated with AraC (2 μM, IC50 in normoxia) for 48 h either in normoxia (21% O2) or hypoxia (1% O2).” left out, “The results are representative of at least three independent experiments.” left out
as §6

U937 = U937 (sensitive) cell line-derived xenograft (CLDX); type: in vivo, mice
Protocol: as §4, §5

[4] = AraC-treated patient-xenografted mice

| Compound | potentiation of the effect of AraC in inducing cell death (U937 AML cell line) | induction of cell death alone (MOLM14 cells; MOLM14, 100 μmol/L ARL, 48 h, in absence of AraC) | potentiating effect with AraC on cell death (MOLM14 cells; MOLM14, with 2 μM Ara-C, 100 μmol/L ARL or 250 μmol/L POM-1, 48 h) | IC50 (MOLM14 cells; Homo sapiens, MOLM-14, MOLM14 cells, normoxia (21% O2)) | total cell tumor burden in bone marrow and spleen ([1]; 9 PDX, AraC-treated versus PBS-treated mice) | percent of CD39 cells in bulk and immature CD34+CD38− population ([1]; 9 PDX, AraC-treated versus control mice) | CD34+CD38− population in residual AML cells ([1]; 9 PDX, post-AraC, bone marrow) | killing of cycling and quiescent cells and LSCs in vivo [1, 4] | type of cell death induced in vivo [1, 4] | peripheral engraftment and total cell tumor burden ([1]; all patients tested, PDX in NSG mice) | duration of response ([1]; variable from patient to patient, PDX in NSG mice) | CD34+CD38− population and CD39 cells in residual bulk and immature populations (AML blasts) | percent and expression of CD39 in residual viable cells (CD39 [2]) | remaining ATP (ATP-hydrolyzing activity of CD39) (CD39 [3]) | total cell tumor burden in bone marrow and spleen (U937) | CD39 expression (U937; post-AraC versus vehicle) |
| --- | --- | --- | --- | --- | --- | --- | --- | --- | --- | --- | --- | --- | --- | --- | --- | --- |
| CCN(CC)c1ncnc2c1ncn2[C@@H]1O[C@H](COP(=O)(O)OP(=O)(O)C(Br)(Br)P(=O)(O)O)[C@@H](O)[C@H]1O [ARL67156] | did not potentiate the effect of AraC in inducing cell death | did not induce cell death alone | potentiatingeffect | – | – | – | – | – | – | – | – | – | – | – | – | – |
| Nc1ccn([C@@H]2O[C@H](CO)[C@@H](O)[C@@H]2O)c(=O)n1 [AraC, cytarabine] | – | – | – | 2 µM | significant cytoreduction | increase in percent of CD39 cells | increase | equally kills both cycling and quiescent cells as well as LSCs in vivo | ROS-/MMP-dependent apoptotic cell death | significant cytoreduction | 2-7 weeks | increase | increased the percent and expression of CD39 | significant decrease | significant cytoreduction | increases |
